{"source": "patent EP4759148A1", "about": "“ADJUSTMENT OF CIRCADIAN RHYTHM” (MEIJI CO., LTD, priority 2023, dated 2025)", "key": {"per2 reporter cells": {"test_system": "per2 reporter cells", "test": "circadian rhythm assay (luciferase reporter assay) using per2 reporter cells", "assay_type": "cell-based, human", "conditions": "5 mM fumaric acid", "method": "Referring to the \"Cell-based circadian assays\" described in the article by H. Oike et al. (NPL 1), a circadian rhythm assay (luciferase reporter assay) using per2 reporter cells was performed to evaluate the action of fumaric acid on circadian rhythms.\nU-2OS cells were transfected with a vector prepared by incorporating the per2 promoter region into a NanoLuc (registered trademark) luciferase vector by using transfection reagent 1 according to a standard method. After about 24 hours, the medium was replaced, and dexamethasone was added at a final concentration of 100 nM to synchronize the cells. After two hours, 1% substrate (Endurazine) was added, and the luminescence intensity of luciferase was measured every 30 minutes using a plate reader equipped with CO2 control and temperature control.\nAfter 25 days, formed colonies were collected and seeded in a 96-well plate (1 × 10^3 cells/well). After three days, the luminescence intensity of luciferase was measured every 60 minutes using a plate reader with CO^2 control and temperature control, in the same manner as described above.\nSubsequently, cell lines with minimal variation in circadian rhythm cycle and stable periodicity were selected. These selected cell lines, referred to as \"per2 reporter cells\" were used in the following experiments.\nThe prepared per2 reporter cells were seeded in a 96-well plate at a density of 5 × 10^3 cells/well. The medium used was high-glucose medium 1 supplemented with 10% fetal bovine serum (FBS), 1% penicillin-streptomycin, and hygromycin, and the cells were cultured at 37°C under 5% CO2 conditions.\nAfter two days from culture, 100 nM dexamethasone was added, and the cells were treated for 2 hours, followed by adding a 1% substrate (Endurazine). Subsequently, the luminescence intensity of luciferase was measured every 12 minutes. For the measurement, high-glucose medium 2 supplemented with 5% FBS and 1% penicillin-streptomycin was used.\nSubsequently, fumaric acid was added to the measurement medium to achieve a final concentration of 5 mM, and the luminescence intensity of luciferase was measured over time using a long-term real-time luminescence measurement system for cultured cells (WSL-1565, Kronos HT) to evaluate changes in circadian rhythm. For a control, the luminescence intensity of luciferase in per2 reporter cells cultured in measurement medium without fumaric acid was measured over time in the same manner.\nIn the luminescence intensity rhythms, valleys were represented by T and peaks by P, and they were labeled as P1, T1, P2, and T2 in order of appearance. Since P1 was unstable in rhythm, the circadian rhythm of per2 reporter cells was evaluated based on the phases of the valleys (T1 and T2) and peak (P2) after T1."}, "GPR41 gene": {"test_system": "GPR41 gene", "test": "induction of GPR41 gene expression in Caco-2 cells (real-time PCR)", "assay_type": "cell-based, human", "conditions": "5 mM fumaric acid, 60 minutes, differentiated Caco-2 cells; Fig. 2", "method": "Caco-2 cells were seeded in a 24-well plate at 2 × 10^5 cells/well. After 3 weeks of differentiation induction, 5 mM fumaric acid was added, and cells were collected 60 minutes later. RNA was extracted, and GPR41 gene expression levels were measured by real-time PCR."}, "[1]": {"conditions": "fumaric acid-added cells versus control"}}}
{"smiles": "O=C(O)/C=C/C(=O)O", "note": "[Fumaric Acid, fumaric acid]", "values": [{"measurement": "circadian rhythm cycle, T2-T1", "setting": "per2 reporter cells; calculated from the phase difference between T1 and T2, control 29.6", "value": 26.4, "unit": "h"}, {"measurement": "phase of circadian rhythm, T1", "setting": "per2 reporter cells; first valley (T1) of luciferase luminescence rhythm, U-2OS per2 reporter cells, control 22.4", "value": 22.2, "unit": "h"}, {"measurement": "Difference in Cycle, T2-T1", "setting": "per2 reporter cells; [1]", "value": -3.2, "unit": "h"}, {"measurement": "Difference in Phase, P2", "setting": "per2 reporter cells; [1]", "value": -0.6, "unit": "h"}, {"measurement": "Difference in Phase, T1", "setting": "per2 reporter cells; [1]", "value": -0.2, "unit": "h"}, {"measurement": "Difference in Phase, T2", "setting": "per2 reporter cells; [1]", "value": -3.4, "unit": "h"}, {"measurement": "phase of circadian rhythm, P2", "setting": "per2 reporter cells; peak P2 of luciferase luminescence rhythm, control 34.8", "value": 34.2, "unit": "h"}, {"measurement": "phase of circadian rhythm, T2", "setting": "per2 reporter cells; second valley (T2) of luciferase luminescence rhythm, control 52.0", "value": 48.6, "unit": "h"}, {"measurement": "expression level of the GPR41 gene", "setting": "GPR41 gene", "value": "increased"}]}
